Measurements: patent US20030078274A1, “Method of reducing neuronal injury or apoptosis” (priority 1999, published 2003)

System: neurons in rat cerebrocortical cultures (gp120-induced apoptosis)
Experiment: gp120-induced neuronal apoptosis in rat cerebrocortical cultures
Format: cell-based, Sprague-Dawley rats
Details: SB 203580 10 μM, applied 15 min before gp120
Procedure: The model used in the assays described below, i.e., rat cerebrocortical cultures, was prepared from embryos of Sprague-Dawley rats at day 15 to 17 of gestation. See Lei et al., Neuron 8:1087-1099 (1992) and Lipton et al., Nature 364:626-632 (1993). Cultures were used for experiments after 17 to 24 days in culture. […] Prior to some experiments, macrophages/microglia or neurons were depleted from the cultures by exposure to 7.5 mM L-leucine methyl ester or 2 mM N-methyl-D-aspartate (NMDA), respectively. See Lipton, NeuroReport 3:913-915 (1992). […] In some experiments, the Griess reaction was used to measure nitrite levels in the culture medium as an index of nitric oxide (NO) release. See Chao et al., Glia 16:276-284 (1996).
Cultures were transferred into Earle's Balanced Salt Solution (EBSS) and incubated for 24 hours with gp120, chemokines, Tuftsin fragment 1-3, i.e., Thr-Lys-Pro (TKP), p38 MAPK inhibitor SB 203580 (i.e., 4-(4-fluorophenyl)-2-(4-methylsulfinylphenyl)-5-(4-pyridyl)imidazole, Calbiochem, San Diego, Calif.), or combinations thereof. Chemokines or TKP were applied for 5 minutes and SB 203580 for 15 minutes prior to gp120 exposure.
TKP was obtained from Sigma (St. Louis, Mo.). Recombinant human MIP-1β, SDF-1α, SDF-1β, and recombinant rat RANTES were purchased from R&D systems ([…].) and Endogen (Woburn, Mass.), respectively. HIV-1 envelope glycoprotein gp120 from the strain SF2 was obtained from the NIH AIDS Research and Reference Reagent Program, Division of AIDS, NIAID, NIH. See Scandella et al., AIDS Res. Hum. Retroviruses 9:1233-1244 (1993). Additional gp120s from HIV-1 strains IIIB and RF2 were obtained from Genetech and the National Cancer Institute, respectively. TNFα, IFNγ, and IL-1β were from Genzyme (Cambridge, Mass.), Gibco BRL (Grand Island, N.Y.) and Endogen (Woburn, Mass.), respectively.
Neuronal apoptosis in the above-described assays was assessed using a variety of techniques, e.g., staining of permeabilized cells with propidium iodide to determine apoptotic morphology, and a neuron-specific antibody (against NeuN or MAP-2) to identify cell type. In brief, cells were fixed for 5 minutes with ice-cold acetone at −20° C. and, after three washes in PBS, for 4 minutes with 2% (w/v) paraformaldehyde solution in PBS at room temperature (RT). Acetone-paraformaldehyde-fixed cells were permeabilized using 0.2% Tween 20 in PBS (PBST), and non-specific binding sites were blocked by incubation for 1 hour with a 10% solution of heat-inactivated goat serum in PBST. To specifically stain neurons, cells were then incubated for 4 hours at RT or overnight at 4° C. with 1:500 dilutions of anti-MAP-2 (Sigma) or anti-NeuN monoclonal antibody (mAb; Chemicon, Temecula, Calif.). Their respective non-specific isotype antibodies served as controls. After three washes, the cells were incubated in a secondary polyclonal antibody (pAb) conjugated either to fluorescein isothiocyanate (FITC) or to horseradish peroxidase (HRP). In the case of HRP-coupled pAb, diaminobenzidine (DAB) served as the color substrate developed by incubation in a mixture of 1 mg/ml DAB and 0.8% H2O2 at a ratio of 3:1. Cellular nuclei were subsequently stained with […] propidium iodide for 5 minutes in the dark, and then coverslips were mounted on glass slides. Experiments were replicated at least 3 times with triplicate values in each experiment. Statistical significance was judged by an analysis of variance (ANOVA) followed by a Scheffé or Bonferroni/Dunn post hoc test.

SMILES: C[S+]([O-])c1ccc(-c2nc(-c3ccc(F)cc3)c(-c3ccncc3)[nH]2)cc1 (stereo not shown) [SB 203580, 4-(4-fluorophenyl)-2-(4-methylsulfinylphenyl)-5-(4-pyridyl)-1H-imidazole]
- effect on gp120SF2-induced neuronal apoptosis: substantially attenuated
